{"source": "patent US9751919B2", "about": "“Antimicrobial compositions comprising a hyaluronic acid binding peptide and a β-lactam antibiotic” (priority 2012, dated 2017)", "test_in_all_cases": "MIC (CLSI broth dilution), agent alone", "key": {"[1]": {"system": "E. coli", "assay_type": "cell-based, Escherichia coli", "method": "(§1) VISA (strains 92, 95 and 96), VRSA (strains 105 and 106) and E. coli (strain 69717) isolates were also tested. One MSSA was used as a control. All MICs were assessed using CLSI guidelines. Also assessed was the activity of cefazolin, ceftriazone, meropenem, and a piperacillin/tazobactam combination antibiotic. Minimum inhibitory concentration (MIC) is the lowest concentration of an antimicrobial that will inhibit the visible growth of a microorganism after incubation.\n(§2) Antimicrobial Susceptibility Testing: A custom designed panel of antimicrobials was created. The panel included: PEP35, penicillin, piperacillin/tazobactam, cefazolin, ceftriaxone, meropenem, clarithromycin, clindamycin, gentamicin, amikacin, vancomycin, ciprofloxacin, levofloxacin, moxifloxacin, linezolid, trimethoprim/sulfamethoxazole and doxycycline. These agents were obtained as laboratory grade powders from their respective manufacturers. Stock solutions were prepared and dilutions made as described by the Clinical Laboratory Standards Institute (2005 CLSI). Following two subcultures from frozen stock the MICs of the antimicrobial agents for the isolates were determined by the CLSI 2005 approved broth macrodilution method. Briefly, test tubes containing doubling antibiotic dilutions (2 ml per tube) of cation adjusted Mueller-Hinton broth (eg. for Enterobacteriaceae) with or without lysed horse blood (2-5% V/V) [eg. for S. pneumoniae] were inoculated to achieve a final concentration of approximately 5×10^5 CFU/ml and incubated in ambient air for 24 hours prior to reading. Colony counts were performed periodically to confirm inocula. Quality control was performed every two weeks using a variety of ATCC QC organisms including; S. aureus 29213, E. faecalis 29212, E. coli 25922 and P. aeruginosa 27853. For all antimicrobials as well as PEP35, CLSI criteria were used.\n(§3) One MS SA and ATCC reference strains were used as controls. All MICs were assessed using CLSI guidelines."}, "[2]": {"system": "CA-MRSA", "assay_type": "cell-based, Staphylococcus aureus", "conditions": "for MIC: Staphylococcus aureus", "method": "as §1\nas §2, with “The panel included: PEP35, penicillin, piperacillin/tazobactam, cefazolin, ceftriaxone, meropenem, clarithromycin, clindamycin, gentamicin, amikacin, vancomycin, ciprofloxacin, levofloxacin, moxifloxacin, linezolid, trimethoprim/sulfamethoxazole and doxycycline.” left out, “27853.” for “27853. For all antimicrobials as well as PEP35, CLSI criteria were used.”\n(§4) One MSSA was used as a control. All MICs were assessed using CLSI guidelines.\nas §3"}, "[3]": {"system": "HA-MRSA", "assay_type": "cell-based, Staphylococcus aureus", "method": "as §1\nas §2, with “The panel included: PEP35, penicillin, piperacillin/tazobactam, cefazolin, ceftriaxone, meropenem, clarithromycin, clindamycin, gentamicin, amikacin, vancomycin, ciprofloxacin, levofloxacin, moxifloxacin, linezolid, trimethoprim/sulfamethoxazole and doxycycline.” left out, “27853.” for “27853. For all antimicrobials as well as PEP35, CLSI criteria were used.”\nas §4, §3"}, "[4]": {"system": "MSSA", "assay_type": "cell-based, Staphylococcus aureus", "conditions": "for MIC: S. aureus control, agent alone", "method": "as §1\nas §2, with “The panel included: PEP35, penicillin, piperacillin/tazobactam, cefazolin, ceftriaxone, meropenem, clarithromycin, clindamycin, gentamicin, amikacin, vancomycin, ciprofloxacin, levofloxacin, moxifloxacin, linezolid, trimethoprim/sulfamethoxazole and doxycycline.” left out, “27853.” for “27853. For all antimicrobials as well as PEP35, CLSI criteria were used.”\nas §4, §3"}}, "note": "Like-named read-outs stand apart in the source and are kept apart here.", "data": [{"molecule": "CC1=C(C(=O)O)N2C(=O)[C@@H](NC(=O)[C@H](N)c3ccccc3)[C@H]2SC1", "note": "[Cephalexin]", "values": [{"measurement": "Cephalexin (MIC)", "setting": "[1]; E. coli, antibiotic alone, two values in cell", "value": "8/8"}, {"measurement": "MIC", "setting": "[1]; Escherichia coli, E. coli control, agent alone, read-out: MIC", "value": 8, "unit": "µg/mL"}, {"measurement": "MICs alone, range", "setting": "[2]; 50 CA-MRSA strains", "value": "64 to 512", "unit": "µg/mL"}, {"measurement": "strains resistant to the antibiotic", "setting": "[2]; 50 CA-MRSA strains", "value": "50 of the 50 strains"}, {"measurement": "MIC", "setting": "[2]; MRSA / USA300", "value": 128, "unit": "µg/mL"}, {"measurement": "MIC", "setting": "[2]; MRSA / USA400", "value": 128, "unit": "µg/mL"}, {"measurement": "MIC", "setting": "[2]; MRSA / USA400, CA-MRSA (CMRSA7/USA400/MW2) isolates, one per table line, agent alone, read-out: MIC", "value": 512, "unit": "µg/mL"}, {"measurement": "MICs alone, range", "setting": "[3]; 50 HA-MRSA strains", "value": "128 to 512", "unit": "µg/mL"}, {"measurement": "strains resistant to the antibiotic", "setting": "[3]; 50 HA-MRSA strains", "value": "50 of the 50 strains"}, {"measurement": "MIC", "setting": "[3]; Staphylococcus aureus, MRSA / USA200, read-out: Cephalexin (MIC), HA-MRSA (CMRSA4/USA200), antibiotic alone", "value": 512, "unit": "µg/mL"}, {"measurement": "Cephalexin (MIC)", "setting": "[4]; S. aureus (control row), antibiotic alone, two values in cell", "value": "4/4"}, {"measurement": "MIC", "setting": "[4]", "value": 8, "unit": "µg/mL"}, {"measurement": "MIC", "setting": "[4]; Staphylococcus aureus, MSSA, read-out: MIC", "value": 4, "unit": "µg/mL"}]}]}
